The numbers were not newly measured in publication PMC10799843 (Molecular pharmaceutics, 2023), which cites them from elsewhere.

The subject of the data set is denatured collagen. The following applies: control scrambled peptide.

Consider “Cy5.5-KGGG-OfGGOfGfGfOfOGOfGOOfGGOOffG [^SCHP]”, for which the Collagen binding affinity entry was “lacking in collagen binding affinity”.
